The record followed here is patent US12139520B2 (priority 2020, dated 2024).

Structures are written as SMILES. Bridge positions count the residues as written; N and C are the ends. Square brackets hold non-standard residues; d marks the D form. Peptide text beside a SMILES is read from it. Hyp = O=C(O)[C@@H]1C[C@@H](O)CN1; Cit = NC(=O)NCCC[C@H](N)C(=O)O

One series addresses hAM1 receptor (Homo sapiens, UniProt O60895+Q16602). The experiment in a line: cAMP assay for in vitro receptor activation, hAM1-R. Format: cell-based. Conditions: cAMP assay, hAM1 receptor; read-out: hAM1R EC50. The gist of the method:
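Read-out is intracellular cAMP as a measure of receptor activation. Cells stably overexpressing hAM1 were subcloned to a monoclonal line, then thawed and seeded at 8000 cells/well in DPBS with 0.05% casein and the phosphodiesterase inhibitor IBMX at 0.5 mM.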

A short description of series [1]: Physical stability of peptide analogues (Thioflavin T fibrillation). Format: physicochemical. Conditions: maximum ThT signal normalized between hAMY maximum and buffer background; 40° C., shaking, four days; pH 7 per table title. The gist of the method: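 1 h in 50 mM NaOAc pH 4 / 50 mM NaPi pH 7; + ThT 4 μM final; 40 °C, 700 rpm linear shake 5 min pre-read; ex 450, em 480 nm q10 min × 4 d; LOESS smoothing; max signal normalised to hAMY max vs buffer blank.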

A further series has as its target T1, hAMY3 receptor (Homo sapiens, UniProt O60896+P30988).
T1 sequence (P30988 25-474): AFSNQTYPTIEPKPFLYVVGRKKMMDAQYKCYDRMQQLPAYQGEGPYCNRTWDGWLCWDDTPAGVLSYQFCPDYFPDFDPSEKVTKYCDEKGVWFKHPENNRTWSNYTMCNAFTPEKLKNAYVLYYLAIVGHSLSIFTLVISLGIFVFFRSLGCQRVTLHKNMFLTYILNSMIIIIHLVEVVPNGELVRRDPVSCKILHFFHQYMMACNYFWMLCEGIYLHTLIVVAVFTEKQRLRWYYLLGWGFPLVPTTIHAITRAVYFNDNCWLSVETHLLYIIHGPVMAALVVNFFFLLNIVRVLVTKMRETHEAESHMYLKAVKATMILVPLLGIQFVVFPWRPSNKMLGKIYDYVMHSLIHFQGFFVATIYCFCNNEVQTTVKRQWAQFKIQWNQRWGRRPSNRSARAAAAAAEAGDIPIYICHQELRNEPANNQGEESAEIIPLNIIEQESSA
T1 sequence (O60896 24-148 partner): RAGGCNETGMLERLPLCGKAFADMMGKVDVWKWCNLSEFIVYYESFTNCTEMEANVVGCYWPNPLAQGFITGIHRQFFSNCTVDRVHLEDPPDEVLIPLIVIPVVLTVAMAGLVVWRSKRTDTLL
The experiment in a line: cAMP assay for in vitro receptor activation, hAMY3-R. Conditions: cAMP assay, hAMY3 receptor; read-out: hAMY3R EC50. Format: cell-based. The gist of the method: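 Monoclonal cell line stably overexpressing human AMY3 receptor, 2000 cells/well in DPBS with 0.05% casein and 0.5 mM IBMX. Stimulated 30 min at room temperature with graded compound doses, human amylin as positive control. cAMP accumulation read by TR-FRET after one hour.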

hAM1 receptor, sequence (Q16602 23-461): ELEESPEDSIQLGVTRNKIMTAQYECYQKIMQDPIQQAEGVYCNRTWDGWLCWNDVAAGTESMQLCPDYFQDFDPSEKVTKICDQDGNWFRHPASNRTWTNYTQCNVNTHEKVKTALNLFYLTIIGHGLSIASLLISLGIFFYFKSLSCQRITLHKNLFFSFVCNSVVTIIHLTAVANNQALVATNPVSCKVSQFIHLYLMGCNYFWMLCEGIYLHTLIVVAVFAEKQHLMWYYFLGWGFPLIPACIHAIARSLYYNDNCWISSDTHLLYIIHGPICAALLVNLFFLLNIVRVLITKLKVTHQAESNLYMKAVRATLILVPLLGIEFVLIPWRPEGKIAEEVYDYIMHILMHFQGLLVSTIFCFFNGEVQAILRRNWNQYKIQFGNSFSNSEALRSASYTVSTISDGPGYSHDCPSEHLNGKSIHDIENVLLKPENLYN
hAM1 receptor, sequence (O60895 43-175 partner): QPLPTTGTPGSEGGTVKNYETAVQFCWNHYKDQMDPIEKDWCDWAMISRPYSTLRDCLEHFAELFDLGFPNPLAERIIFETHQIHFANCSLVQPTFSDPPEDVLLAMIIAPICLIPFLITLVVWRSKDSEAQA

Turning to `CC[C@H](C)[C@H](NC(=O)[C@H](CCC(N)=O)NC(=O)[C@H](Cc1c[nH]cn1)NC(=O)[C@H](C)NC(=O)[C@H](CC(C)C)NC(=O)[C@H](CCCNC(=N)N)NC(=O)[C@H](CCC(N)=O)NC(=O)[C@@H](NC(=O)[C@@H](NC(=O)[C@@H]1CSSC[C@H](NC(=O)CN)C(=O)N[C@@H](CCCNC(=N)N)C(=O)N[C@@H]([C@@H](C)O)C(=O)NCC(=O)N[C@@H]([C@@H](C)O)C(=O)N1)[C@@H](C)O)C(C)C)C(=O)N[C@@H](Cc1ccc(O)cc1)C(=O)N[C@@H](CCC(N)=O)C(=O)N[C@@H](Cc1ccccc1)C(=O)N[C@H](C(=O)N[C@@H](CC(=O)O)C(=O)N[C@@H](CCCCN)C(=O)N[C@@H](Cc1ccccc1)C(=O)N[C@@H](CCCCN)C(=O)N[C@@H](CC(=O)O)C(=O)N[C@@H](CC(N)=O)C(=O)N[C@H](C(=O)N[C@@H](C)C(=O)N1CCC[C@H]1C(=O)N[C@@H](CCCNC(=N)N)C(=O)N[C@@H](CO)C(=O)N[C@@H](CCCCN)C(=O)N[C@H](C(=O)N[C@@H](CO)C(=O)N1CCC[C@H]1C(=O)N[C@@H](CCC(N)=O)C(=O)N[C@H](C(=O)N[C@@H](Cc1ccccc1)C(N)=O)[C@@H](C)O)[C@@H](C)CC)C(C)C)[C@@H](C)O` [compound 239] (H-GCRTGTCTVQRLAHQIYQFTDKFKDNVAPRSKISPQTF-NH2; disulfide 2-7; N-terminus assumed), the EC50 at hAM1 receptor was over 5 µM; on hAMY3 receptor it was 0.236 nM. The “Max ThT signal (%)” value in series [1] stood at 0.200%.

Take `CC[C@H](C)[C@H](NC(=O)[C@H](CCC(N)=O)NC(=O)[C@H](CC(=O)O)NC(=O)[C@H](C)NC(=O)[C@H](CC(C)C)NC(=O)[C@H](CCCNC(N)=O)NC(=O)[C@H](CC(N)=O)NC(=O)[C@@H](NC(=O)[C@@H](NC(=O)[C@@H]1CSSC[C@H](NC(=O)[C@@H](N)CCCNC(=N)N)C(=O)N[C@@H](CC(N)=O)C(=O)N[C@@H](C)C(=O)N[C@@H](CO)C(=O)N[C@@H]([C@@H](C)O)C(=O)N1)[C@@H](C)O)C(C)C)C(=O)N[C@H](C(=O)N[C@@H](CCC(N)=O)C(=O)N[C@@H](Cc1ccccc1)C(=O)N[C@@H](CO)C(=O)N[C@@H](CC(N)=O)C(=O)N[C@@H](CCCCN)C(=O)N[C@@H](CC(=O)O)C(=O)N[C@@H](CCCCN)C(=O)N[C@@H](C)C(=O)N[C@@H](CCC(N)=O)C(=O)N[C@H](C(=O)N[C@@H](CO)C(=O)N1CCC[C@H]1C(=O)N1CCC[C@H]1C(=O)N[C@H](C(=O)N[C@@H](CCC(=O)O)C(=O)N[C@H](C(=O)NCC(=O)N1CCC[C@H]1C(=O)N[C@@H](CC(N)=O)C(=O)N[C@@H](CO)C(=O)N1C[C@H](O)C[C@H]1C(N)=O)C(C)C)[C@@H](C)O)C(C)C)[C@@H](C)O` [compound 245] (H-RCNASTCTVN[Cit]LADQITQFSNKDKAQVSPPTEVGPNS[Hyp]-NH2; disulfide 2-7; N-terminus assumed): the EC50 at hAM1 receptor is over 5 µM; at hAMY3 receptor it was 0.017 nM. Also, in series [1], the “Max ThT signal (%)” value is 3.350%.

Consider `CC[C@H](C)[C@H](NC(=O)[C@H](CCC(N)=O)NC(=O)[C@H](Cc1c[nH]cn1)NC(=O)[C@H](C)NC(=O)[C@H](CC(C)C)NC(=O)[C@H](Cc1c[nH]c2ccccc12)NC(=O)[C@H](CCC(N)=O)NC(=O)[C@@H](NC(=O)[C@@H](NC(=O)[C@@H]1CSSC[C@H](NC(=O)[C@@H](N)CCCCN)C(=O)N[C@@H](CC(N)=O)C(=O)N[C@@H]([C@@H](C)O)C(=O)N[C@@H](C)C(=O)N[C@@H]([C@@H](C)O)C(=O)N1)[C@@H](C)O)C(C)C)C(=O)N[C@@H](Cc1ccc(O)cc1)C(=O)N[C@@H](CCC(N)=O)C(=O)N[C@@H](Cc1ccccc1)C(=O)N[C@H](C(=O)N[C@@H](CC(=O)O)C(=O)N[C@@H](CCCCN)C(=O)N[C@@H](C)C(=O)N[C@@H](CCCCN)C(=O)N[C@@H](CC(=O)O)C(=O)N[C@@H](CC(N)=O)C(=O)N[C@H](C(=O)N[C@@H](C)C(=O)N1CCC[C@H]1C(=O)N1CCC[C@H]1C(=O)N[C@H](C(=O)N[C@@H](CC(N)=O)C(=O)N[C@H](C(=O)NCC(=O)N[C@@H](CO)C(=O)N[C@@H](CC(N)=O)C(=O)NCC(=O)N1C[C@H](O)C[C@H]1C(N)=O)C(C)C)[C@@H](C)O)C(C)C)[C@@H](C)O` [compound 320] (H-KCNTATCTVQWLAHQIYQFTDKAKDNVAPPTNVGSNG[Hyp]-NH2; disulfide 2-7; N-terminus assumed), for which the results for the EC50 on hAM1 receptor and at hAMY3 receptor were over 5 µM and 0.009 nM, respectively. In addition, in series [1], the “Max ThT signal (%)” value is given as 11.100%.

As to `CC[C@H](C)[C@H](NC(=O)[C@H](CCC(N)=O)NC(=O)[C@H](CCC(=O)O)NC(=O)[C@H](C)NC(=O)[C@H](CC(C)C)NC(=O)[C@H](Cc1c[nH]c2ccccc12)NC(=O)[C@H](CCC(N)=O)NC(=O)[C@@H](NC(=O)[C@@H](NC(=O)[C@@H]1CSSC[C@H](NC(=O)[C@@H](N)CCCCN)C(=O)N[C@@H](CC(N)=O)C(=O)N[C@@H](C)C(=O)N[C@@H](C)C(=O)N[C@@H]([C@@H](C)O)C(=O)N1)[C@@H](C)O)C(C)C)C(=O)N[C@@H](Cc1ccc(O)cc1)C(=O)N[C@@H](CCC(N)=O)C(=O)N[C@@H](Cc1ccccc1)C(=O)N[C@H](C(=O)N[C@@H](CC(=O)O)C(=O)N[C@@H](CCCCN)C(=O)N[C@@H](CC(=O)O)C(=O)N[C@@H](CCCCN)C(=O)N[C@@H](CC(=O)O)C(=O)N[C@@H](CC(N)=O)C(=O)N[C@H](C(=O)N[C@@H](C)C(=O)N1CCC[C@H]1C(=O)N1CCC[C@H]1C(=O)N[C@H](C(=O)N[C@@H](CC(N)=O)C(=O)N[C@H](C(=O)NCC(=O)N[C@@H](CO)C(=O)N[C@@H](CC(N)=O)C(=O)NCC(=O)N1C[C@H](O)C[C@H]1C(N)=O)C(C)C)[C@@H](C)O)C(C)C)[C@@H](C)O` [compound 333] (H-KCNAATCTVQWLAEQIYQFTDKDKDNVAPPTNVGSNG[Hyp]-NH2; disulfide 2-7; N-terminus assumed), the EC50 is 0.107 µM on hAM1 receptor and 0.236 nM on hAMY3 receptor. In series [1], the “Max ThT signal (%)” value was determined as 25.700%.

Take `CC[C@H](C)[C@H](NC(=O)[C@H](CCC(N)=O)NC(=O)[C@H](Cc1c[nH]cn1)NC(=O)[C@H](C)NC(=O)[C@H](CC(C)C)NC(=O)[C@H](Cc1c[nH]c2ccccc12)NC(=O)[C@H](CCC(N)=O)NC(=O)[C@@H](NC(=O)[C@@H](NC(=O)[C@@H]1CSSC[C@H](NC(=O)[C@@H](N)CCCCN)C(=O)N[C@@H](CC(N)=O)C(=O)N[C@@H]([C@@H](C)O)C(=O)N[C@@H](C)C(=O)N[C@@H]([C@@H](C)O)C(=O)N1)[C@@H](C)O)C(C)C)C(=O)N[C@@H](Cc1ccc(O)cc1)C(=O)N[C@@H](CCC(N)=O)C(=O)N[C@@H](Cc1ccccc1)C(=O)N[C@H](C(=O)N[C@@H](CC(=O)O)C(=O)N[C@@H](CCCCN)C(=O)N[C@@H](CC(=O)O)C(=O)N[C@@H](CCCCN)C(=O)N[C@@H](CC(=O)O)C(=O)N[C@@H](CC(N)=O)C(=O)N[C@H](C(=O)N[C@@H](C)C(=O)N1CCC[C@H]1C(=O)N[C@@H](CCCNC(=N)N)C(=O)N[C@H](C(=O)N[C@@H](CCCCN)C(=O)N[C@H](C(=O)NCC(=O)N[C@@H](CO)C(=O)N[C@@H](CC(N)=O)C(=O)NCC(=O)N1C[C@H](O)C[C@H]1C(N)=O)C(C)C)[C@@H](C)O)C(C)C)[C@@H](C)O` [compound 312] (H-KCNTATCTVQWLAHQIYQFTDKDKDNVAPRTKVGSNG[Hyp]-NH2; disulfide 2-7; N-terminus assumed): the EC50 on hAM1 receptor was over 5 µM; on hAMY3 receptor, 0.012 nM. In addition, the “Max ThT signal (%)” value in series [1] was determined as 17.000%.

On to `CC[C@H](C)[C@H](NC(=O)[C@H](CCC(N)=O)NC(=O)[C@H](Cc1c[nH]cn1)NC(=O)[C@H](C)NC(=O)[C@H](CC(C)C)NC(=O)[C@H](CCCNC(=N)N)NC(=O)[C@H](CCC(N)=O)NC(=O)[C@@H](NC(=O)[C@@H](NC(=O)[C@@H]1CSSC[C@H](NC(=O)[C@@H](N)CCCCN)C(=O)N[C@@H](CC(N)=O)C(=O)N[C@@H]([C@@H](C)O)C(=O)N[C@@H](C)C(=O)N[C@@H]([C@@H](C)O)C(=O)N1)[C@@H](C)O)C(C)C)C(=O)N[C@@H](Cc1ccc(O)cc1)C(=O)N[C@@H](CCC(N)=O)C(=O)N[C@@H](Cc1ccccc1)C(=O)N[C@H](C(=O)N[C@@H](CC(=O)O)C(=O)N[C@@H](CCCCN)C(=O)N[C@@H](CC(=O)O)C(=O)N[C@@H](CCCCN)C(=O)N[C@@H](CC(=O)O)C(=O)N[C@@H](CC(N)=O)C(=O)N[C@H](C(=O)N[C@@H](C)C(=O)N1CCC[C@H]1C(=O)N[C@@H](C)C(=O)N[C@H](C(=O)N[C@@H](CC(N)=O)C(=O)N[C@H](C(=O)NCC(=O)N[C@@H](CO)C(=O)N[C@@H](CC(N)=O)C(=O)NCC(=O)N1C[C@H](O)C[C@H]1C(N)=O)C(C)C)[C@@H](C)O)C(C)C)[C@@H](C)O` [compound 28] (H-KCNTATCTVQRLAHQIYQFTDKDKDNVAPATNVGSNG[Hyp]-NH2; disulfide 2-7; N-terminus assumed), for which the EC50 on hAM1 receptor is over 5 µM; at hAMY3 receptor it was 0.008 nM. Also, the “Max ThT signal (%)” value in series [1] was found to be 8.200%.
